Results taken from patent US20250090699A1, “FAP TARGETING CYCLIC PEPTIDES AND CONJUGATES THEREOF” (Novartis AG, priority 2023, published 2025).
Starred links: 1 amine or outer side, 2 acyl side, 3 side chain; linkers in the order of their positions; H or OH if unused. Non-standard residues stand in square brackets, D forms with d. Residues, ends and D or L forms follow the SMILES beside them. Groups on a side chain read outwards from the residue. *: point of attachment. F(4amPEG2NHDOTA-Ga) = gallium complex of (S)-2,2',2''-(10-(1-(4-(2-amino-2-carboxyethyl)phenyl)-3,12-dioxo-5,8-dioxa-2,11-diazatridecan-13-yl)-1,4,7,10-tetraazacyclododecane-1,4,7-triyl)triacetic acid (Phe with 4-aminomethyl-PEG2-DOTA-Ga), O=C([O-])CN1CCN(CC(=O)[O-])CCN(CC(=O)NCCOCCOCC(=O)NCc2ccc(C[C@H](N[*:1])C(=O)[*:2])cc2)CCN(CC(=O)[O-])CC1.[Ga+3]; F(4OEtNHDOTA-Lu) = lutetium complex of (S)-2,2',2''-(10-(2-((2-(4-(2-amino-2-carboxyethyl)phenoxy)ethyl)amino)-2-oxoethyl)-1,4,7,10-tetraazacyclododecane-1,4,7-triyl)triacetic acid (Phe with 4-O-ethylamino-DOTA-Lu), O=C([O-])CN1CCN(CC(=O)[O-])CCN(CC(=O)NCCOc2ccc(C[C@H](N[*:1])C(=O)[*:2])cc2)CCN(CC(=O)[O-])CC1.[Lu+3]; X9 = O=C(O)CN1CCN(CC(=O)O)CCN([C@H](CCC(=O)*)C(=O)O)CCN(CC(=O)O)CC1; AAZTA5 = O=C(O)CN1CCN(CC(=O)O)CC(CCCCC(=O)*)(N(CC(=O)O)CC(=O)O)C1; Phe(4-CH2NH2) = NCc1ccc(C[C@H](N)C(=O)O)cc1; Piperazinyl(4-CH2COOH) = O=C(O)CN1CCN(*)CC1; 3Pal(6-NH2) = Nc1ccc(C[C@H](N)C(=O)O)cn1; AEF = NCCOc1ccc(C[C@H](N)C(=O)O)cc1; NMeF = CN[C@@H](Cc1ccccc1)C(=O)O; Ahp(2) = CCCCC[C@H](N)C(=O)O; hSer = N[C@@H](CCO)C(=O)O; AEEA = NCCOCCOCC(=O)O; CO = O=C([*:1])[*:2]; Propyl = CCC*

How the values were obtained:
[1] = molecular target: T1, mouse FAP (Mus musculus, UniProt P97321); test: Surface plasmon resonance (SPR) for peptide affinity, mouse FAP; format: binding
T1 construct: biotinylated His, Avi tag, mouse FAP (26-761, FAP-M82Q5); His; Avi tag (biotinylated); purchased AcroBiosystems FAP-M82Q5
T1 sequence (P97321 26-761): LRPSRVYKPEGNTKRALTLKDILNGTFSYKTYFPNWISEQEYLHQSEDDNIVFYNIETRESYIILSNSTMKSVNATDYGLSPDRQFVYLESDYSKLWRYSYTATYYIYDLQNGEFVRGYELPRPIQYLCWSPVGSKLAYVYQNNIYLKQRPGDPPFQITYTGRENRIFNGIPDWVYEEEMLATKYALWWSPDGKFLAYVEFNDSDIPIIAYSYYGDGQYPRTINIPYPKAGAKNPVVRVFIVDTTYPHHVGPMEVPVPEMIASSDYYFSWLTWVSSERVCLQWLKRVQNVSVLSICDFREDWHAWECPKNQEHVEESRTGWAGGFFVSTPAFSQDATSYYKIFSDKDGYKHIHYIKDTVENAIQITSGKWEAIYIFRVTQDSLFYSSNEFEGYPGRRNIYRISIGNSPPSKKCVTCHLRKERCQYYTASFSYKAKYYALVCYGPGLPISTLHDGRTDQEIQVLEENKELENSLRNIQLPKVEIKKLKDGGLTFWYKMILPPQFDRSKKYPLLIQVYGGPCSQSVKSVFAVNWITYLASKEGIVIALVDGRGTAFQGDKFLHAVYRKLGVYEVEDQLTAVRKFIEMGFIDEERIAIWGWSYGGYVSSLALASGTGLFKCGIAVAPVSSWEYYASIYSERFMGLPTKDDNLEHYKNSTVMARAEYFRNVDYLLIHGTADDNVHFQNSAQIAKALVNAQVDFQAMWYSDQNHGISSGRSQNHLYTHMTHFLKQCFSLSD
Protocol: Peptide affinities (KD) were determined by SPR using a Biacore™ 8K device (Cytiva) towards the following proteins: biotinylated His, Avi tag, human FAP (26-760, FAP-H82Q6), biotinylated His, Avi tag, mouse FAP (26-761, FAP-M82Q5), His tag, human DPP4 (34-766, DP4-H82E3), all purchased from AcroBiosystems and His tag, mouse DPP4 (29-760, 954-SE) from R&D Systems. The FAP proteins and their homologous were diluted to a concentration of 2 μg/mL into acetate buffer pH 5.5, then immobilized onto a CM5 sensorchip (Cytiva, BR-1005-30) to reach a response around 2000 R U. The running buffer HBS-EP+pH 7.6 (20× from Teknova CAT. No: H8022) contained 10 mM HEPES pH 7.6, 150 mM NaCl, 3 mM EDTA, 0.05% Tween20 and 2% DMSO. Experiments were carried out at 25° C. using a flow rate of 30 μL/min. Compounds were tested in single cycle kinetic mode at 8 different concentrations. Curve fitting was performed using the Biacore™ 8K evaluation software. The sensorgrams were fitted by applying a 1:1 binding model to calculate kinetic rate constants and equilibrium dissociation constants (KD).
For this assay, the setup had the same conditions (flow rate, running buffer, peptide dilution) as described above for the CM5 method. The oligo CAP reagent obtained in the CAPture Kit (Ref. 28920234) was 1/5 diluted into running buffer and used with a contact time of 300 s at a flow rate of 2 μL/min. The human and mouse FAP constructs described above were used (from AcroBiosystems or produced in house). The FAP proteins were diluted to a concentration of 2 μg/mL into acetate pH 5.5, 0.05% Tween20 and used with a contact time of 600 s at a flow rate of 10 μL/min. The peptides were tested with an association time of 280 s followed by a dissociation time of 3000 s at a flow rate of 30 μL/min. The regeneration was done using the regeneration solution (8 M guanidine-HCl, 1 M NaOH) as obtained with a contact time of 270 s at a flow rate of 10 μL/min. […] The compounds marked with an asterisk were tested against human and mouse DDP4.

[2] = molecular target: T2, human FAP (Homo sapiens, UniProt Q12884); test: Enzymatic FAP competition assay (Z-Gly-Pro-AMC fluorescence), human FAP; format: biochemical; details: read-out: h. FAP, Enz., IC50
T2 construct: the biotinylated His, Avi tag, human FAP (26-760, FAP-H82Q6); His; Avi tag (biotinylated); purchased AcroBiosystems FAP-H82Q6
T2 sequence (Q12884 26-760): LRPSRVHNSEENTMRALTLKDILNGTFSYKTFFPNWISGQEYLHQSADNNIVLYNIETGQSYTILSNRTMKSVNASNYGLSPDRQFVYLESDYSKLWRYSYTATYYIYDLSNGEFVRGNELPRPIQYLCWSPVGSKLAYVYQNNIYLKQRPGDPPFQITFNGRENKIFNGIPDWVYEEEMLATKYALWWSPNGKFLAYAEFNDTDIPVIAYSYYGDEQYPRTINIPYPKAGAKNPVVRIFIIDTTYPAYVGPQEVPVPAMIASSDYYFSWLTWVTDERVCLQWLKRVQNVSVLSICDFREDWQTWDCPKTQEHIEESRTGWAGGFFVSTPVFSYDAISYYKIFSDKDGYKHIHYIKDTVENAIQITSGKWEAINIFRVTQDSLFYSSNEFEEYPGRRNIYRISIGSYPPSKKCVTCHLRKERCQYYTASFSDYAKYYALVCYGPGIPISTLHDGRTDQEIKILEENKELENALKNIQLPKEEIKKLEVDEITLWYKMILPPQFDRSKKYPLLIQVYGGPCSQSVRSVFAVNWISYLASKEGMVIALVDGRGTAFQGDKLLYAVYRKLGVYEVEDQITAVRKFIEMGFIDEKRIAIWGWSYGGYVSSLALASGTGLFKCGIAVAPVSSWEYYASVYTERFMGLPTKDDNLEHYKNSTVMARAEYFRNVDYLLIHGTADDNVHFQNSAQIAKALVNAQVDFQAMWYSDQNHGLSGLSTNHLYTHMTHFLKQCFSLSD
Protocol: (§1) Peptide potencies (IC50) to inhibit the FAP enzymatic activity were determined using a fluorescence-based assay towards the biotinylated His, Avi tag, human FAP (26-760, FAP-H82Q6) and the biotinylated His, Avi tag, mouse FAP (26-761, FAP-M82Q5). Standard assay conditions consisted of 20 μL total volume in white 384-well plates (Greiner, Ref. 784075), in 50 mM phosphate buffer pH 7.5 containing 150 mM NaCl, 0.05% Tween20 and 1% final DMSO. Tested peptides at 14 different concentrations up to 1 μM were added to 0.01 nM human or mouse FAP. The peptides were incubated for 24 hours together with the protein before adding the substrate 50 μM Z-Gly-Pro-AMC (I-1145 from Bachem). Samples were then incubated at 22-24° C. for 4 h before reading the fluorescence at excitation wavelength of 380 nm and emission wavelength of 460 nm using the Tecan Infinite® M1000 PRO. The high control (100% activity) was not containing any peptide, and an internal potent peptide was added at 10 μM concentration for the low control (100% inhibition). IC50 values were calculated by curve fitting using an in-house developed software (Novartis Helios software application) using the method described by Fomenko et al., 2006 (regression algorithms for nonlinear dose-response curve fitting). Following normalization of activity values for the wells to % inhibition (% inhibition=[(high control-sample)/(high control-low control)]x 100). IC50 fitting was carried out from the duplicated points.

[3] = molecular target: T1, mouse FAP; test: Enzymatic FAP competition assay (Z-Gly-Pro-AMC fluorescence), mouse FAP; format: biochemical; details: read-out: m. FAP, Enz., IC50
Protocol: as §1

Kd [1]	IC50 [2]	IC50 [3]	Compound
35 pM	13 pM	59 pM	Gly-Gly-NMePhe-F(4OEtNHDOTA-Lu)-Ahp-Trp-Gly-3PyA(6NH2)-Asp-D-Pro (cyclo(GG[NMeF][F(4OEtNHDOTA-Lu)][Ahp(2)]WG[3Pal(6-NH2)]D[dP]); also: Lu complex of DOTA) [Example C24]
< 35 pM	24 pM	49 pM	hSer-Gly-NMe3PyA-F(4amPEG2NHDOTA-Lu)-hS(Pr)-W7N-Gly-K(COpipzaa)-Asp-D-Pro [Example C6]
< 12 pM	5 pM	16 pM	Gly-Gly-NMePhe-F(4amPEG2NHDOTA-Ga)-Ahp-Trp-Gly-Tyr-Asp-D-Pro (cyclo(GG[NMeF][F(4amPEG2NHDOTA-Ga)][Ahp(2)]WGYD[dP]); also: Ga complex) [Example C49]

The next lines start with the compound.

Compound	Kd [1]	IC50 [2]	IC50 [3]
CCCCC[C@@H]1NC(=O)[C@H](Cc2ccc(OCCNC(=O)CC[C@H](C(=O)O)N3CCN(CC(=O)O)CCN(CC(=O)O)CCN(CC(=O)O)CC3)cc2)NC(=O)[C@H](Cc2ccccc2)N(C)C(=O)CNC(=O)CNC(=O)[C@H]2CCCN2C(=O)[C@H](CC(=O)O)NC(=O)[C@H](Cc2ccc(O)cc2)NC(=O)CNC(=O)[C@H](Cc2c[nH]c3ccccc23)NC1=O [Example B30, Gly-Gly-NMePhe-F(4OEtNHRDOTAGA)-Ahp-Trp-Gly-Tyr-Asp-D-Pro] (cyclo([AEF](X9)[Ahp(2)]WGYD[dP]GG[NMeF]))	119 pM	19 pM	118 pM
CCCOCC[C@@H]1NC(=O)[C@H](Cc2ccc(CNC(=O)COCCOCCNC(=O)CCCCC3(N(CC(=O)O)CC(=O)O)CN(CC(=O)O)CCN(CC(=O)O)C3)cc2)NC(=O)[C@H](Cc2ccccc2)N(C)C(=O)CNC(=O)CNC(=O)[C@H]2CCCN2C(=O)[C@H](CC(=O)O)NC(=O)[C@H](CCCCNC(=O)N2CCN(CC(=O)O)CC2)NC(=O)CNC(=O)[C@H](Cc2c[nH]c3ccccc23)NC1=O [Example B31, Gly-Gly-NMePhe-F(4amPEG2NHAAZTA)-hS(Pr)-Trp-Gly-K(COpipzaa)-Asp-D-Pro] (cyclo(D[dP]GG[NMeF][Phe(4-CH2NH2)]([AEEA-AAZTA5])[hSer](Propyl)WGK([CO-Piperazinyl(4-CH2COOH)])))	250 pM	30 pM	100 pM
